Assays:
[1] = test system: 143B; assay: Sensitivity test: cell viability (Cell Counting Kit-8) after anticancer agent, RNA-transfected cells; type: cell-based, Human; conditions: 143B cells, MTX 72 hours, DOX and CDDP 48 hours
Description: (§1) Human osteosarcoma cell lines used were MNNG/HOS, MG63 and 143B. The cells were seeded in a 96-well plate at 3 x 10^3 cells/well. After 24 hours, the medium was replaced with fresh medium and miRNA-100 (SEQ ID NO: 1), miRNA-125b (SEQ ID NO: 2) or negative control (nonsense RNA) (microRNA control, Non-target RNA (S10CM0600; COSMO BIO Co., Ltd)) was introduced to the cells using DharmaFECT transfection reagents (Thermo Scientific). At 24 hours after RNA introduction, the medium was replaced with fresh medium. Specific procedures followed the protocol attached to the gene transfer reagents used.
(§2) Methotrexate (MTX), doxorubicin (DOX) and cisplatin (CDDP) were applied to the cells lines MNNG/HOS, MG63 or 143B to which various RNAs were introduced under following conditions followed by incubation over a certain period. The viability of the cells thereafter was measured with the Cell Counting Kit-8 (Dojindo Laboratories). Specific procedures followed the protocol attached to the kit used.
(§3) Methotrexate (MTX): applied at a final concentration of 0 to 32 µM and incubated for 72 hours.
(§4) Doxorubicin (DOX): applied at a concentration of 0 to 1.3 µM and incubated for 48 hours.
(§5) Cisplatin (CDDP): applied at a final concentration of 0 to 32 µM and incubated for 48 hours.
(§6) From the results of measurement of the viability of the cells, the 50% inhibitory concentration of cell proliferation (IC50) for each anticancer agent was determined.

[2] = test system: MNNG/HOS; assay: as above; type: cell-based, Human; conditions: MTX 72 hours, DOX and CDDP 48 hours
Description: as §1, §2, §3, §4, §5, §6

[3] = test system: MG63; assay: as above; type: cell-based, Human; conditions: MTX 72 hours, DOX and CDDP 48 hours
Description: as §1, §2, §3, §4, §5, §6

[4] = test system: BAK1; assay: BAK1 protein expression by western blotting in RNA-transfected MNNG/HOS cells; type: cell-based, human; conditions: with application of DOX 64 µM, 48 hours, Fig. 8
Description: as §1, with “A human” for “Human”, “line” for “lines”, “was MNNG/HOS.” for “were MNNG/HOS, MG63 and 143B.”, “and” for “and miRNA-100 (SEQ ID NO: 1),”
Doxorubicin (DOX) at a final concentration of 0 µM or 64 µM was applied to MNNG/HOS cells to which various RNAs were introduced as above (1) and then the cells were incubated for 48 hours. To the collected cells was added a urea-containing lysis buffer and the mixture was incubated on ice for 30 minutes to lyse the cells. The lysed cells were centrifuged at 15,000 rpm for 30 minutes at 4°C and the supernatant was collected. The protein concentration in the supernatant was quantified by the Bradford assay (Bio-Rad).
Proteins in the supernatant were separated by electrophoresis using an SDS/polyacrylamide gel and transferred onto a nitrocellulose membrane (Bio-Rad). […] After the membrane was washed with TBS-T, the antigen-antibody complex was detected with the ECL-Prime kit (GE).

[5] = Homo sapiens, 143B, control (negative control nonsense RNA) introduced
[6] = Homo sapiens, 143B, miR-100 introduced
[7] = Homo sapiens, 143B, miR-125b introduced
[8] = Homo sapiens, HOS, control (negative control nonsense RNA) introduced
[9] = Homo sapiens, HOS, miR-100 introduced
[10] = Homo sapiens, HOS, miR-125b introduced
[11] = Homo sapiens, MG-63, MG63 cells, control (negative control nonsense RNA) introduced
[12] = Homo sapiens, MG-63, MG63 cells, miR-100 introduced
[13] = Homo sapiens, MG-63, MG63 cells, miR-125b introduced
[14] = control (negative control nonsense RNA) introduced

Row | SMILES | IC50 [1, 5] [nM] | IC50 [1, 6] [nM] | IC50 [1, 7] [nM] | IC50 [2, 8] [nM] | IC50 [2, 9] [nM] | IC50 [2, 10] [nM] | IC50 [3, 11] [nM] | IC50 [3, 12] [nM] | IC50 [3, 13] [nM] | expression level of BAK1 in NC versus miRNA-125b-introduced cell line [4] | IC50 [1, 14] [nM] | IC50 ([1]; miR-100 introduced) [nM] | IC50 ([1]; miR-125b introduced) [nM] | IC50 [2, 14] [nM] | IC50 ([2]; miR-100 introduced) [nM] | IC50 ([2]; miR-125b introduced) [nM] | IC50 ([3]; MG63 cells, control (negative control nonsense RNA) introduced) [nM] | IC50 ([3]; MG63 cells, miR-100 introduced) [nM] | IC50 ([3]; MG63 cells, miR-125b introduced) [nM]
1 | CN(Cc1cnc2nc(N)nc(N)c2n1)c1ccc(C(=O)N[C@@H](CCC(=O)O)C(=O)O)cc1 [MTX, Methotrexate] | 1490 | 3210 | 3970 | 1050 | 2520 | 4030 | 3090 | 7180 | 7740 | – | – | – | – | – | – | – | – | – | –
2 | COc1cccc2c1C(=O)c1c(O)c3c(c(O)c1C2=O)C[C@@](O)(C(=O)CO)C[C@@H]3O[C@H]1C[C@H](N)[C@H](O)[C@H](C)O1 [DOX, Doxorubicin] | 64 | 77 | 72 | 180 | 250 | 370 | 65 | 73 | 74 | almost the same | – | – | – | – | – | – | – | – | –
3 | [NH2][Pt]([NH2])([Cl])[Cl] [CDDP, Cisplatin] | – | – | – | – | – | – | – | – | – | – | 12300 | 14500 | 14100 | 5700 | 6970 | 7320 | 2910 | 2570 | 1630
